# Results: patent publication EP3788116B1, “CHEMILUMINESCENT IMIDAZOPYRAZINONE-BASED PHOTOSENSITIZERS WITH AVAILABLE SINGLET AND TRIPLET EXCITED STATES” (Universidade do Porto, priority 2018, dated 2019)
# Columns and labels:
# [1] = system: HepG2 human liver cancer cell lines; assay: MTT cytotoxicity assay; type: cell-based; conditions: HepG2, 24h exposure, versus control cell viability taken as 100%, read-out: toxicity
# Procedure: (§1) To assess if the produced singlet oxygen can induce cytotoxicity in tumor cells, toxicity assays were performed in vitro with compound 1 in HepG2 human liver cancer cell lines. Cytotoxicity of compound 1 was evaluated through the MTT and LDH assay, which has been widely used as a colorimetric approach based on the activity of mitochondrial dehydrogenase enzyme in cells. MTT test was performed after an incubation of 24h and 48h. LDH release was monitored following an incubation of 24h and 48h with different concentrations of Compound 1 (1, 10, 20, 50 and 100 µM). Percent viability was obtained by comparing with control cell viability, considered as 100%. Data represents the mean ± SD of measurements of three independent experiments. Results of the one-way ANOVA factorial analysis. […] Thus, compound 1 was indeed able to induce cytotoxicity without the need of external excitation sources.
# [2] = system: HepG2 human liver cancer cell lines; assay: LDH release cytotoxicity assay; type: cell-based; conditions: HepG2, 24h exposure, read-out: toxicity
# Procedure: as §1
# [3] = Singlet oxygen formation by quenching of ABDA fluorescence; conditions: increasing concentrations of compound (0-15 microMolar); no external excitation; sodium azide prevented the quenching
# Procedure: The production of reactive triplet states by compound 1 was determined by assessing the formation of singlet oxygen. This latter species is formed by energy transfer from a triplet molecule to oxygen. To this end, 9,10-anthracenediyl-bis(methylene)dimalonic acid (ABDA) was added to a solution containing compound 1, as the fluorescence of ABDA is quenched by the formation of singlet oxygen. […] To confirm that the quenching of ABDA's fluorescence was due to the production of singlet oxygen, sodium azide was added to solutions containing ABDA and compound 1. Sodium azide is a known quencher of singlet oxygen. As expected, the addition of sodium azide prevented the quenching of the fluorescence emitted by ABDA (Figure 12).
smiles,measurement,setting,value
"Cc1nc2c(Br)[nH]c(-c3ccc(O)cc3)cn-2c1=O [Compound 1, 8-bromo-6-(4-hydroxyphenyl)-2-methylimidazo[1,2-a]pyrazin-3(7H)-one]",cytotoxicity at 50 µM,[1]; 50 µM,15%
same,cytotoxicity at 100 µM,[1]; 100 µM,12%
same,cytotoxicity at 50 µM,[2]; 50 µM,15%
same,cytotoxicity at 100 µM,[2]; 100 µM,12%
same,fluorescence intensity of ABDA,[3],decreased significantly
